Source: article PMC6152192, “Novel Methylselenoesters as Antiproliferative Agents” (Molecules : A Journal of Synthetic Chemistry and Natural …, 2017)
Values joined by “and” are separate entries in the source; they are usually repeats but may differ in a detail not shown here. Equal values may be shown once.

Key:
Type in all cases: cell-based
[1] = test system: HT-29 (colorectal adenocarcinoma); assay: MTT viability assay, HT-29; settings: HT-29, 72 h, MTT; for CC50: read-out: LC50 (the source's name)
Method: (§1) The novel compounds were tested against a panel of different cancer lines: PC-3 (prostate adenocarcinoma), MCF7 (mammary adenocarcinoma), HTB-54 (lung carcinoma), K-562 (chronic myelogenous leukemia) and HT-29 (colorectal adenocarcinoma). Two non-malignant cell lines, BEAS-2B (bronchial epithelial) and 184B5 (mammary epithelial) were also included to evaluate the toxicity of the novel synthesized compounds. The antiproliferative activity was measured with the [3-(4,5-dimethylthiazol-2-yl)-2,5-diphenyltetrazolium bromide] (MTT) assay after 72 h treatment. Six concentrations ranging from 0.1 to 100 μM were tested. MSA is largely known as the main CH3SeH putative precursor and was therefore included as positive control. The following parameters were calculated: GI50 (concentration which reduces the growth by 50%), TGI (concentration completely inhibiting growth) and LC50 (concentration that kills 50% of the cells).
(§2) All cells were purchased from the American Type Culture Collection (ATCC, Barcelona, Spain). HT-29 (colorectal adenocarcinoma), HTB-54 (grade III lung carcinoma), MCF7 (mammary adenocarcinoma), PC-3 (grade IV prostate adenocarcinoma) and K-562 (chronic myelogenous leukemia) were cultured in RPMI (Gibco, Madrid, Spain), 10% FBS (Gibco), 100 units/mL penicillin and 100 μg/mL streptomycin (Gibco). BEAS-2B cell line (normal epithelial lung) was cultured in DMEM (Gibco), 10% FBS, 100 units/mL penicillin and 100 μg/mL streptomycin. 184B5 (normal mammary gland) cell line was cultured in DMEM:F12 supplemented with 5% FBS, 1 × ITS (Lonza, Barcelona, Spain), 100 nM hydrocortisone (Sigma-Aldrich), 2 mM sodium pyruvate (Lonza), 20 ng/mL EGF (Sigma-Aldrich), 0.3 nM trans-retinoic acid (Sigma-Aldrich), 100 units/mL penicillin and 100 µg/mL streptomycin. Cells were cultured at 37 °C under 5% CO2.
(§3) Cell viability after treatment was assessed by the well-known 3-(4,5-dimethyl-thiazol-2-yl)-2,5-diphenyltetrazolium bromide (MTT, Sigma-Aldrich) assay. Briefly, 10,000 cells were seeded in 96-well plates, treated and incubated for 72 h. Dilutions of the compounds in cell medium were freshly prepared from a 0.01 M stock in DMSO. After treatment, 50 μL of MTT solution in PBS (2 mg/mL) were added and cells were incubated for 4 h. Medium was removed and 150 μL of DMSO was added to dissolve the formed formazan crystals. Absorbance was read at 550 nm in a microplate absorbance reader (Sunrise, Tecan, Männedorf, Switzerland).

[2] = test system: 184B5 (non-malignant mammary epithelium); assay: MTT viability assay, 184B5; settings: 184B5 non-malignant, 72 h, MTT; for CC50: read-out: LC50 (the source's name)
Method: as §1, §2, §3

[3] = test system: MCF7 (mammary adenocarcinoma); assay: MTT viability assay, MCF7; settings: MCF7, 72 h, MTT; for CC50: read-out: LC50 (the source's name)
Method: as §1, §2, §3

HTB-54 (lung carcinoma) = assay: MTT viability assay, HTB-54; settings: HTB-54, 72 h, MTT; for CC50: read-out: LC50 (the source's name)
Method: as §1, §2, §3

[4] = test system: BEAS-2B (non-malignant bronchial epithelial); assay: MTT viability assay, BEAS-2B; settings: BEAS-2B non-malignant, 72 h, MTT; for CC50: read-out: LC50 (the source's name)
Method: as §1, §2, §3

[5] = test system: PC-3 (prostate adenocarcinoma); assay: MTT viability assay, PC-3; settings: PC-3, 72 h, MTT; for CC50: read-out: LC50 (the source's name)
Method: as §1, §2, §3

[6] = test system: K-562 (chronic myelogenous leukemia); assay: MTT viability assay, K-562; settings: K-562, 72 h, MTT; for CC50: read-out: LC50 (the source's name)
Method: as §1, §2, §3

Substance	GI50 [1] [µM]	TGI [1] [µM]	CC50 [1] [µM]	GI50 [2] [µM]	TGI [2] [µM]	CC50 [2] [µM]	GI50 [3] [µM]	TGI [3] [µM]	CC50 [3] [µM]	GI50 (HTB-54 (lung carcinoma))	CC50 (HTB-54 (lung carcinoma)) [µM]	GI50 [4] [µM]	TGI [4] [µM]	CC50 [4] [µM]	GI50 [5]	TGI [5] [µM]	CC50 [5] [µM]	GI50 [6] [µM]	TGI [6] [µM]	CC50 [6] [µM]	also measured
Dimethyl 5-cyano-1,3-benzenedicarboselenoate [Compound 14]	3.8 ± 0.1	7.9 ± 0.7	> 100	3.8 ± 0.7	6.5 ± 0.6	9.3 ± 0.7	4.9 ± 0.8	8.4 ± 1.1	54.4 ± 2.7	3.8 ± 0.6 µM	66.5 ± 4.5	3.2 ± 0.7	5.5 ± 0.5	7.8 ± 0.3	7.2 ± 3.5 µM	32.3 ± 3.7	68.7 ± 3	29.9 ± 0.6	54.7 ± 0.7	79.5 ± 0.7	–
Methyl 1,3-benzodioxole-5-carboselenoate [Compound 8]	5.9 ± 0.8	27.7 ± 4.5	81.1 ± 4	3.7 ± 0.3	6.4 ± 0.2	9 ± 0.4	4.6 ± 0.5	9.2 ± 1.3	68.7 ± 2.5	6 ± 0.9 µM	77.1 ± 4.9	3.1 ± 0.3	5.6 ± 0.6	8 ± 1.1	5.7 ± 1.6 µM	11.0 ± 3.1	96 ± 4.7	29.7 ± 4.7	62.6 ± 3.9	95.4 ± 4.9	TGI (HTB-54 (lung carcinoma)): 23.2 ± 2.6 µM
Methyl 2-(4-pyridyl)thiazole-4-carboselenoate [Compound 12]	5.1 ± 0.1	14.2 ± 6.6	> 100	3.4 ± 0.3	6.5 ± 0.8	9.6 ± 2.8	4.4 ± 1	8.1 ± 1.7	56.2 ± 9.6	9.8 ± 5.1 µM	80.5 ± 3.5	3.7 ± 1.3	6.4 ± 1.3	9.2 ± 1	> 10 µM and 16.9 µM	50.9 ± 4.9	85 ± 4.7	82 ± 4.4	>100	> 100	TGI (HTB-54 (lung carcinoma)): 44.9 ± 3.7 µM
Methyl 2-phenyl-4-quinolinecarboselenoate [Compound 10]	4.1 ± 0.3	7.5 ± 0.7	35 ± 2.4	3.9 ± 0.7	6.3 ± 0.5	8.7 ± 0.4	5.6 ± 1.3	51.3 ± 3.7	> 100	5.9 ± 1.1 µM	64.4 ± 4.2	3.1 ± 0.5	5.5 ± 0.4	7.8 ± 0.5	4.4 ± 1.3 µM	–	70.9 ± 5.2	9.7 ± 4.9	59.1 ± 3.5	> 100	TGI (HTB-54 (lung carcinoma)): 16.7 ± 2.3 µM
Methyl 2-thiophencarboselenoate [Compound 4]	3.4 ± 0.2	7.2 ± 1.2	47.5 ± 3.2	3.6 ± 0.8	7.2 ± 1.4	27.9 ± 4.6	5.3 ± 1.4	22.8 ± 3.8	89.6 ± 4.1	8.5 ± 3.1 µM	73.9 ± 4.1	2.9 ± 0.3	5.8 ± 0.7	8.7 ± 2.1	5.2 ± 0.9 µM	19.4 ± 3.6	62 ± 4.9	40.6 ± 4.5	74.6 ± 4.9	> 100	TGI (HTB-54 (lung carcinoma)): 39.0 ± 3.1 µM
Methyl 4-methoxybenzoselenoate [Compound 2]	4.1 ± 0.1	7.5 ± 1.1	50 ± 2.4	3.7 ± 0.8	6.4 ± 1.5	9 ± 2.1	4.1 ± 0.8	9.3 ± 4.1	74.8 ± 4	6.8 ± 1.7 µM	70 ± 2.9	3.2 ± 0.5	5.8 ± 0.6	8.4 ± 1	7.3 ± 1.7 µM	45.1 ± 4.5	> 100	40.8 ± 4.8	70.6 ± 5.9	> 100	TGI (HTB-54 (lung carcinoma)): 29.7 ± 4.3 µM
Methyl 9-acridinecarboselenoate [Compound 13]	6 ± 0.5	16.5 ± 1.9	66.6 ± 0.1	6.6 ± 1.2	26.8 ± 1.0	65 ± 4.5	4.2 ± 1.8	35.4 ± 4.7	83.4 ± 4.1	–	–	3.8 ± 0.1	6.4 ± 0.2	8.9 ± 0.4	–	>100	> 100	–	–	–	–
Methyl benzo[b]thiophene-2-carboselenoate [Compound 7]	3.7 ± 0.2	7.4 ± 0.9	41.8 ± 4.5	3.9 ± 1.2	6.9 ± 1.7	9.9 ± 0.8	6.9 ± 1.4	61.6 ± 4.1	> 100	> 10 µM and 17.5 µM	93.4 ± 4.8	3.9 ± 0.6	6.8 ± 0.8	9.8 ± 1.1	> 10 µM and 18.4 µM	47.8 ± 3.9	77.3 ± 4.5	29.2 ± 4.4	58.8 ± 1.5	88.3 ± 3.3	TGI (HTB-54 (lung carcinoma)): 55.4 ± 4.4 µM
